Patent publication EP4768499A1, “MACROCYCLIC PEPTIDE COMPOUND HAVING CELL MEMBRANE PERMEABILITY AND METABOLIC STABILITY, AND LIBRARY CONTAINING SAME” (Chugai Seiyaku Kabushiki Kaisha, priority 2023, dated 2025)
Starred links: 1 amine or outer side, 2 acyl side, 3 side chain; linkers in the order of their positions; H or OH if unused. Positions of bridges follow the written chain, without caps; N, C: chain ends. Non-standard residues stand in square brackets, D forms with d. Residues, ends and D or L forms follow the SMILES beside them. *: point of attachment. NMeF = CN[C@@H](Cc1ccccc1)C(=O)O; NMeGABA = CN(CCCC(=O)[*:2])[*:1]; NMeI = CC[C@H](C)[C@H](NC)C(=O)O; NMeT = CN[C@H](C(=O)O)[C@@H](C)O; hPhe = N[C@@H](CCc1ccccc1)C(=O)O; NMeL = CN[C@@H](CC(C)C)C(=O)O; NMeV = CN[C@H](C(=O)O)C(C)C; d(β3hA) = C[C@@H](N)CC(=O)O; NMeAbu = CC[C@H](NC)C(=O)O; NMeA = CN[C@@H](C)C(=O)O; Piperidide = C1CCN(*)CC1; Abu = CC[C@H](N)C(=O)O; Sar = CNCC(=O)O; tBu = CC(C)(C)*

Columns and labels:
[1] = Metabolic stability test: liver microsomal stability assay; format: in vitro ADME, mouse; details: mouse liver microsomes 0.5 mg protein/mL, compound 1 µM; for microsomal CLint at 1 µM: male, pH 7.4, presence of NADPH, read-out: Mouse Hepatic Microsome CLh,int NADPH(+); for Mouse Hepatic Microsome CLh,int NADPH(-): absence of NADPH
[2] = Membrane permeability test using Caco-2 cells with preincubation; format: in vitro ADME; details: Caco-2; preincubation 20 to 24 hours; Apical FaSSIF/HBSS pH 6.0, Basal HBSS 4% BSA pH 7.4; 180 minutes; read-out: Caco2 Papp
Caco-2 cells = assay: as above; format: in vitro ADME; details: Caco-2 cells, preincubation 20 to 24 hours; apical FaSSIF/HBSS 1% DMSO pH 6.0, basal HBSS 4% BSA pH 7.4; basal sample at 180 minutes

Row | Compound | microsomal CLint at 1 µM [1] [µL/min/mg] | Mouse Hepatic Microsome CLh,int NADPH(-) [1] [µL/min/mg Protein] | Papp A→B [2] [×10⁻⁶ cm/s] | Caco2 Papp (10^-6 cm/sec) (Caco-2 cells)
1 | CC[C@H](C)[C@H]1C(=O)N[C@@H](Cc2ccccc2)C(=O)N2CCC[C@H]2C(=O)N(C)[C@@H](CC(C)C)C(=O)N[C@@H](COC(C)(C)C)C(=O)N(C)[C@@H](Cc2ccccc2)C(=O)N[C@@H]([C@@H](C)O)C(=O)N(C)[C@@H](CC)C(=O)N2CCC[C@H]2C(=O)N(C)[C@@H](CC(C)C)C(=O)N[C@@H](C(C)C)C(=O)N[C@H](C(=O)N2CCCCC2)CC(=O)N(C)CCCC(=O)N(C)[C@@H](CC(C)C)C(=O)N1C [pd042] ([NMeGABA][NMeL][NMeI]FP[NMeL]S(tBu)[NMeF]T[NMeAbu]P[NMeL]VD-Piperidide; lactam N-14) | 32.3 | 18.1 | 0.59 | 0.59 10^-6 cm/sec
2 | CC[C@H](C)[C@@H]1NC(=O)[C@@H]2CCCN2C(=O)[C@H](CC(C)C)N(C)C(=O)[C@H](CC(C)C)NC(=O)[C@H]([C@@H](C)CC)N(C)C(=O)[C@H]([C@@H](C)O)NC(=O)[C@H](Cc2ccccc2)N(C)C(=O)[C@H](CC)N(C)C(=O)[C@H](Cc2ccccc2)N(C)C(=O)[C@H](C(C)C)NC(=O)[C@H](CC(C)C)N(C)C(=O)[C@H](C)N(C)C(=O)C[C@@H](C(=O)N2CCCCC2)NC(=O)[C@H](C(C)C)N(C)C1=O [pd043] ([NMeA][NMeL]V[NMeF][NMeAbu][NMeF]T[NMeI]L[NMeL]PI[NMeV]D-Piperidide; lactam N-14) | 40.7 | 34.8 | 0.16 | 0.16 10^-6 cm/sec
3 | CC[C@H](C)[C@H]1C(=O)N[C@@H]([C@@H](C)O)C(=O)N(C)CC(=O)N(C)[C@@H](CC(C)C)C(=O)N(C)[C@@H](Cc2ccccc2)C(=O)N[C@H](C(=O)N2CCCCC2)CC(=O)N(C)[C@@H](C)C(=O)N[C@@H](CC(C)C)C(=O)N(C)[C@@H](Cc2ccccc2)C(=O)N(C)[C@@H](C)C(=O)N(C)[C@@H](CC(C)C)C(=O)N[C@@H](COC(C)(C)C)C(=O)N(C)[C@@H](C)C(=O)N[C@@H](CC(C)C)C(=O)N1C [pd044] ([NMeA]L[NMeF][NMeA][NMeL]S(tBu)[NMeA]L[NMeI]T[Sar][NMeL][NMeF]D-Piperidide; lactam N-14) | 54.3 | 33.1 | 0.83 | 0.83 10^-6 cm/sec
4 | CC[C@H](C)[C@@H]1NC(=O)[C@H](C)N(C)C(=O)C[C@@H](C(=O)N2CCCCC2)NC(=O)[C@H](CC)N(C)C(=O)[C@H](COC(C)(C)C)NC(=O)[C@H](CC(C)C)N(C)C(=O)[C@H](C)N(C)C(=O)[C@H](CC(C)C)N(C)C(=O)[C@H](Cc2ccccc2)N(C)C(=O)CN(C)C(=O)[C@H]([C@@H](C)O)NC(=O)[C@H](CC(C)C)N(C)C(=O)[C@H](C(C)C)NC(=O)[C@H](Cc2ccccc2)N(C)C1=O [pd045] ([NMeA]I[NMeF]V[NMeL]T[Sar][NMeF][NMeL][NMeA][NMeL]S(tBu)[NMeAbu]D-Piperidide; lactam N-14) | 43.9 | 26.4 | 0.32 | 0.32 10^-6 cm/sec
5 | CC[C@@H]1NC(=O)[C@H](C)N(C)C(=O)[C@H](CC(C)C)N(C)C(=O)[C@H]([C@@H](C)O)N(C)C(=O)[C@H](CC(C)C)N(C)C(=O)[C@H](C)NC(=O)[C@H](Cc2ccccc2)N(C)C(=O)CN(C)C(=O)C[C@@H](C(=O)N2CCCCC2)NC(=O)[C@H](C(C)C)N(C)C(=O)[C@H](C)NC(=O)[C@@H]2CCCN2C(=O)[C@H](C(C)C)NC(=O)[C@H](Cc2ccccc2)N(C)C1=O [pd046] ([Sar][NMeF]A[NMeL][NMeT][NMeL][NMeA][Abu][NMeF]VPA[NMeV]D-Piperidide; lactam N-14) | 6.2 | 5.4 | 0.06 | 0.06 10^-6 cm/sec
6 | CC(C)C[C@H]1C(=O)N2CCC[C@H]2C(=O)N(C)[C@@H](Cc2ccccc2)C(=O)N[C@@H](C(C)C)C(=O)N(C)[C@@H](C)C(=O)N(C)[C@@H](C(C)C)C(=O)N[C@H](C(=O)N2CCCCC2)CC(=O)N[C@H](C(C)C)C(=O)N(C)[C@@H]([C@@H](C)O)C(=O)N(C)[C@@H](CC(C)C)C(=O)N(C)[C@@H](C(C)C)C(=O)N(C)[C@@H](CC(C)C)C(=O)N[C@@H](CCc2ccccc2)C(=O)N(C)CC(=O)N1C [pd047] ([dV][NMeT][NMeL][NMeV][NMeL][hPhe][Sar][NMeL]P[NMeF]V[NMeA][NMeV]D-Piperidide; lactam N-14) | 41.4 | 30.0 | 0.16 | 0.16 10^-6 cm/sec
7 | CC[C@H](C)[C@H]1C(=O)N(C)[C@@H](CC(C)C)C(=O)N[C@H](C(=O)N2CCCCC2)CC(=O)N(C)CCCC(=O)N[C@@H](CC(C)C)C(=O)N(C)[C@@H](CC(C)C)C(=O)N(C)[C@@H](C)C(=O)N(C)[C@@H](Cc2ccccc2)C(=O)N[C@@H](C)C(=O)N(C)[C@@H](Cc2ccccc2)C(=O)N(C)[C@@H](CC)C(=O)N(C)[C@@H](CC(C)C)C(=O)N[C@@H]([C@@H](C)O)C(=O)N(C)[C@@H](C)C(=O)N1C [pd048] ([NMeGABA]L[NMeL][NMeA][NMeF]A[NMeF][NMeAbu][NMeL]T[NMeA][NMeI][NMeL]D-Piperidide; lactam N-14) | 30.2 | 20.7 | 0.28 | 0.28 10^-6 cm/sec
8 | CC[C@H]1C(=O)N(C)[C@@H](C)C(=O)N[C@@H](CC(C)C)C(=O)N(C)[C@@H](C(C)C)C(=O)N[C@H](C)CC(=O)N[C@H](C(C)C)C(=O)N(C)[C@@H](CC(C)C)C(=O)N[C@@H](CC(C)C)C(=O)N(C)[C@@H](C(C)C)C(=O)N(C)[C@@H](CC(C)C)C(=O)N(C)CC(=O)N[C@@H]([C@@H](C)O)C(=O)N(C)[C@@H](Cc2ccccc2)C(=O)N[C@@H](COC(C)(C)C)C(=O)N1C [pd049] (cyclo(L[NMeV][NMeL][Sar]T[NMeF]S(tBu)[NMeAbu][NMeA]L[NMeV][d(β3hA)][dV][NMeL])) | 30.6 | 29.1 | 0.32 | 0.32 10^-6 cm/sec
9 | CC[C@H](C)[C@@H]1NC(=O)[C@H](C)N(C)C(=O)[C@H]([C@@H](C)O)N(C)C(=O)[C@H](CC(C)C)N(C)C(=O)[C@H]([C@@H](C)CC)NC(=O)[C@H](Cc2ccccc2)N(C)C(=O)[C@H](Cc2ccccc2)N(C)C(=O)[C@H](C)NC(=O)[C@H](COC(C)(C)C)NC(=O)[C@H](CC)N(C)C(=O)[C@H](C(C)C)NC(=O)CCCN(C)C(=O)C[C@@H](C)NC(=O)[C@H](C(C)C)N(C)C1=O [pd050] (cyclo(A[NMeF][NMeF]I[NMeL][NMeT][NMeA]I[NMeV][d(β3hA)][NMeGABA]V[NMeAbu]S(tBu))) | 13.2 | 15.9 | 0.54 | 0.54 10^-6 cm/sec
